Reference: publication PMC3368874, “Characterization of 4-HNE Modified L-FABP Reveals Alterations in Structural and Functional Dynamics” (PLoS ONE, 2012)
Values belong to the molecule of their own block, whether it stands above or below them.

Legend:
[1] = target: T1, 4-HNE adducted rL-FABP (Mus musculus, UniProt P12710); assay: Displacement of ANS by fatty acids, 1X 4-HNE treated rL-FABP; format: binding
T1 construct: made in house; host or cells: Escherichia coli BL21 (DE3)
T1 sequence (P12710 1-127): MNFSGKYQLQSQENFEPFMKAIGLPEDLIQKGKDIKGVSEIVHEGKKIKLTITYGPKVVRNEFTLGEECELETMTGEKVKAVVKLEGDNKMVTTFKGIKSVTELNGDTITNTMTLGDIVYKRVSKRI
Method: (§1) Lipid displacement assays were adapted from previous publications, [30]. Briefly, lipids were used to displace ANS bound to rL-FABP to assess how 4-HNE modification affects affinity towards more biologic ligands. Lipid stocks were diluted in absolute ethanol (10 mM, 5 mM, 1 mM, 0.1 mM) and prepared in a nitrogen gas chamber. Using conditions similar to ANS binding, increasing concentrations of FAs [stearate (SA), oleate (OA), and LA] were titrated into a pre-equilibrated solution containing 45 µM ANS, 1 µM r-LFABP, and 50 mM tricine (pH 8.0). The sample was mixed for an additional 30 seconds and the excitation and emission of ANS was measured as mentioned, where the loss of fluorescence indicates affinity towards the lipid.
(§2) For the displacement assays, one-site inhibition analysis of the data was utilized based on the fit of the data (instead of a two-site inhibition analysis) (eq2). Fluorescence counts that are inhibitable are denoted as bi, and residual counts are br. The concentration of OA, SA or LA is denoted as [FA]. The Hill constant, η, indicates the cooperativity between the binding sites, where if η >1 the sites are positively cooperative, η <1 the site are negatively cooperative, and if η = 1 the sites are non-cooperative. [drawing 2] (2)

[2] = target: T2, rL-FABP (Mus musculus, UniProt P12710); assay: Displacement of ANS by fatty acids, WT rL-FABP; format: binding
T2 construct: made in house; host or cells: Escherichia coli BL21 (DE3)
T2 sequence (P12710 1-127): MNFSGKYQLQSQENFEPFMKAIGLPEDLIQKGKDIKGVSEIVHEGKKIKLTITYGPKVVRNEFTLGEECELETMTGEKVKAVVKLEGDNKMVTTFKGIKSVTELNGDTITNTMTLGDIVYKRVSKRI
Method: as §1, §2

[3] = tested on: L-FABP
Source text: All protocols were approved by the Institutional Animal Care and Use Committee (IACUC) at the University of Colorado Anschutz Medical Campus. Male C57Bl/6J mice were fed a modified Lieber-DeCarli Diet (BioServ, Frenchtown, NJ) consisting of 45% fat-derived calories and 15% protein-derived calories with the remaining caloric content derived from either ethanol or maltose-dextrin. Mice were fed for a period of 6 weeks according to previous laboratory studies, [20]. At termination, the liver was harvested for whole tissue and histological evaluation as previously described, [21]. Subcellular fractions were isolated from whole liver tissue using sucrose gradient centrifugation.
200 ug of whole cell homogenates from both control and ethanol mice (n = 6/group) were incubated with 5 ug of mouse monoclonal ubiquitin antibody (Abcam, cat# ab411) for 2 hours at 4°C on a rotator to allow ubiquitin protein to bind to antibody. 100 ul of a 50% Protein G slurry (prepared and stored in 0.02% sodium azide and PBS, pH 7.4) was added to the reaction and incubated at 4°C rotating overnight. Samples were washed 5×5 minutes in PBST (PBS +[…]) and denatured in SDS-PAGE loading buffer at 95°C for 5 minutes. Immunoprecipitated protein was separated via SDS-PAGE and transferred to PVDF, and immunoblotted for L-FABP (Abcam, cat # 7847). Density of ubiquitinated bands were normalized to levels of L-FABP/β-Actin determined by immunoblotting.
Total RNA was isolated from […] of frozen tissue from control and ethanol-fed mice (n = 3) using RNeasy Mini Kits (Qiagen,Valencia, CA).

[4] = tested on: FABP1; conditions: 4 week ramped ethanol feeding regimen; cited from earlier work
[5] = tested on: L-FABP; conditions: following ethanol consumption in rats; cited from earlier work
[6] = target: T3, apo rL-FABP (Mus musculus, UniProt P12710); assay: Thermal denaturation of apo rL-FABP (UV-monitored); conditions: native apo rL-FABP, 0X 4-HNE
T3 construct: made in house; host or cells: Escherichia coli BL21 (DE3)
T3 sequence (P12710 1-127): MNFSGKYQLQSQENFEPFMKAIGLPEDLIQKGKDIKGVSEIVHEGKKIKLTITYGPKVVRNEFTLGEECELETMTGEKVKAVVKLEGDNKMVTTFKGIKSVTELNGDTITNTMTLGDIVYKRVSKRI
Method: (§3) The stability of rL-FABP was assessed using UV-monitored heating experiments. Native (apo and holo) and 4-HNE modified (apo and holo) rL-FABP (0.8 mg/ml) was thermally denatured in 50 mM tricine buffer (pH 8.0) at 40–95°C over 1.5 hours in a 0.7 mL quartz cell (Starna Cells). Absorbance of rL-FABP was monitored at 260–360 nm using a Chirascan Plus Spectrometer (Applied Photophysics, Leatherhead, Surrey, UK) once per minute. Temperature was continuously ramped 1°C/min. Light scattering was recorded continuously at 360 nm to monitor protein aggregation. Temperature of aggregation (Tm) was determined using Global Analysis T-Ramp software provided by Applied Photophysics (Pro-Data Global3 v1.1.0) following baseline correction.

[7] = target: T4, holo rL-FABP (Mus musculus, UniProt P12710); assay: Thermal denaturation of holo rL-FABP (UV-monitored); conditions: native holo rL-FABP (linoleic acid bound), semi-quantitative
T4 construct: made in house; host or cells: Escherichia coli BL21 (DE3)
T4 sequence (P12710 1-127): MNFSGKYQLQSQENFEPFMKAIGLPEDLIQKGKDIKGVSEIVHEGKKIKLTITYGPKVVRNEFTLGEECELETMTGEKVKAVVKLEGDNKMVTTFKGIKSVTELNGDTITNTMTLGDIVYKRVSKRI
Method: as §3

- bi (counts inhibitable) ([1]; 1X 4-HNE (53.95 µM) treated rL-FABP): 411,800±36,800 AFU
- Ki ([1]; 1X 4-HNE (53.95 µM) treated rL-FABP, read-out: ki (inhibition constant)): 4.41 ± 1.66 µM
- br (counts residual) ([1]; 1X 4-HNE treated rL-FABP): 81,300±30,500 AFU
- n (hill coefficient) ([1]; 1X 4-HNE treated rL-FABP): 2.74±0.37
- reduction of maximal binding to the FA by 4-HNE ([1]; 1X 4-HNE treated versus WT rL-FABP): 41%
- br (counts residual) [2]: 145,800±14,400 AFU
- n (hill coefficient) [2]: 2.75±0.264
- bi (counts inhibitable) ([2]; 45 µM ANS, 1 µM protein): 698,800±19,400 AFU
- Ki ([2]; 45 µM ANS, 1 µM protein, read-out: ki (inhibition constant)): 1190 ± 130 nM
Molecule: CCCCCCCCCCCCCCCCCC(=O)O [Stearic Acid]

Molecule: CCO [ethanol]
- poly-ubiquitinated L-FABP normalized to total L-FABP ([3]; co-immunoprecipitation, ethanol diet 6 weeks, P<0.001, n = 6): significant increase
- decrease in FABP1 mRNA (RT-PCR) ([3]; ethanol diet 6 weeks versus control): 1.6 fold
- relative expression of FABP1 ([3]; ethanol livers, control 1.00±0.084, P<0.05, n = 3): 0.617±0.069
- reduction in L-FABP protein (1D Western Blot) ([3]; whole cell lysates, ethanol diet 6 weeks versus control, P<0.001, n = 6): ~80%
- decrease in the mRNA of FABP1 [4]: > 50%
- decrease in expression of L-FABP [5]: ~30%

B1: apo rL-FABP: purified, delipidated recombinant mouse liver fatty acid-binding protein (unbound) (protein, UniProt P12710 1-127, looked up)
Fatty acid-binding protein, …: MNFSGKYQLQSQENFEPFMKAIGLPEDLIQKGKDIKGVSEIVHEGKKIKLTITYGPKVVRNEFTLGEECELETMTGEKVKAVVKLEGDNKMVTTFKGIKSVTELNGDTITNTMTLGDIVYKRVSKRI
modifications: delipidated
- Tm (temperature of aggregation) [6]: 71.82±0.09 °C

B2: holo rL-FABP: recombinant mouse L-FABP incubated with 1 mM linoleic acid (lipid-bound) (protein, UniProt P12710 1-127, looked up)
Fatty acid-binding protein, …: MNFSGKYQLQSQENFEPFMKAIGLPEDLIQKGKDIKGVSEIVHEGKKIKLTITYGPKVVRNEFTLGEECELETMTGEKVKAVVKLEGDNKMVTTFKGIKSVTELNGDTITNTMTLGDIVYKRVSKRI
modifications: linoleic acid bound
- Tm (temperature of aggregation) [7]: 86.09±0.57 °C
